{
  "source": "patent US6861419B2",
  "about": "“Substituted 1, 4-thiazepine and analogs as activators of caspases and inducers of apoptosis and the use thereof” (Cytovia, Inc., priority 2000, dated 2005)",
  "key": {"[1]": {"system": "T-47D", "assay": "Caspase cascade activation (N-(Ac-DEVD)-N'-ethoxycarbonyl-R110 fluorogenic substrate) in T-47D cells", "format": "cell-based", "conditions": "T47D; human breast cancer cell line T-47D, 24 hours incubation with compound, 3 hour substrate incubation; read-out: Caspase Potency EC50 (nM) T-47D", "protocol": "(§1) Human breast cancer cell lines T-47D and ZR-75-1 were grown according to media component mixtures designated by American Type Culture Collection +10% fetal calf sera (FCS) (Life Technologies, Inc.) in a 5% CO2-95% humidity incubator as 37° C. The T-47 and ZR-75-1 cells were maintained at a cell density between 30 and 80% confluency at a cell density of 0.1 to 0.6×10^6 cells/mL. Cells were harvested at 600 xg and resuspended at 0.65×10^6 cells/mL into appropriate media +10% FCS. An aliquot of 45 μL of cells was added to a well of a 96-well microtiter plate containing 5 μL of a 10% DMSO in RPMI-1640 media solution containing 1.6 to 100 μM of test compound (0.16 to 10 μM final).\n(§2) An aliquot of 45 μL of cells was added to a well of a 96-well microtiter plate containing 5 μL of a 10% DMSO in RPMI-1640 media solution without test compound as the control sample. The samples were mixed by agitation and then incubated at 37° C. for 24 hours in a 5% CO2-95% humidity incubator. After incubation, the samples were removed from the incubator and 50 μL of a solution w containing […] of N-(Ac-DEVD)-N′-ethoxycarbonyl-R110 (SEQ ID NO:1) fluorogenic substrate (Cytovia, Inc.; WO99/18856), 20% sucrose (Sigma), 20 mM dithiothreitol (DTT) (Sigma), 200 mM NaCl (Sigma), 40 mM Na piperazine-N,N′-bis[2-ethanesulfonic acid] (PIPES) buffer pH 7.2 (Sigma), and 500 μg/mL lysolecithin (Calbiochem) was added. The samples were mixed by agitation and incubated at room temperature. Using a fluorescent plate reader (Model 1420 Wallac Instruments), an initial reading (T=0) was made approximately 1-2 minutes after addition of the substrate solution, employing excitation at 485 nm and emission at 530 nm, to determine the background fluorescence of the control sample. After the 3 hour incubation, the samples were read for fluorescence as above (T=3 hours).\n(§3) The Relative Fluorescence Unit (RFU) values were used to calculate the sample readings as follows: RFU(T=3h)−Control RFU(T=0)=Net RFU(T=3h)\n(§4) The level of caspase cascade activation was determined by the ratio of the net RFU value for the test compound to that of the control samples. The EC50 (nM) was determined by a sigmoidal dose-response calculation (Prism 2.0, GraphPad Software, Inc.). The compounds of the invention were determined to have caspase cascade activating effects by proceeding as in Example 8."}, "[2]": {"system": "ZR-75-1", "assay": "Caspase cascade activation (N-(Ac-DEVD)-N'-ethoxycarbonyl-R110 fluorogenic substrate) in ZR-75-1 cells", "format": "cell-based", "conditions": "human breast cancer cell line ZR-75-1, 24 hours incubation with compound, 3 hour substrate incubation; read-out: Caspase Potency EC50 (nM) ZR-75-1", "protocol": "as §1, §2, §3, §4"}},
  "data": [
    {"compound": "Cc1ccc(C2CC(c3c(O)cc(C)oc3=O)=Nc3ccccc3S2)cc1", "note": "(stereo not shown) [Compound 85, 4-hydroxy-6-methyl-3-(2-p-tolyl-2,3-dihydro-benzo[b][1,4]thiazepin-4-yl)-pyran-2-one]", "values": [
      {"measurement": "EC50", "setting": "[1]", "result": 6930, "unit": "nM"},
      {"measurement": "EC50", "setting": "[2]", "result": 4210, "unit": "nM"}
    ]},
    {"compound": "CSc1ccc(C2CC(c3c(O)cc(C)oc3=O)=NCCS2)cc1", "note": "(stereo not shown) [Compound 70, 4-hydroxy-6-methyl-3-[7-(4-methylsulfanyl-phenyl)-2,3,6,7-tetrahydro-[1,4]thiazepin-5-yl]-pyran-2-one]", "values": [
      {"measurement": "EC50", "setting": "[1]", "result": 345, "unit": "nM"},
      {"measurement": "EC50", "setting": "[2]", "result": 163, "unit": "nM"}
    ]},
    {"compound": "Cc1cc(O)c(C2=NCCSC(c3ccc(Cl)c(Cl)c3)C2)c(=O)o1", "note": "(stereo not shown) [Compound 79, 3-[7-(3,4-dichloro-phenyl)-2,3,6,7-tetrahydro-[1,4]thiazepin-5-yl]-4-hydroxy-6-methyl-pyran-2-one]", "values": [
      {"measurement": "EC50", "setting": "[1]", "result": 557, "unit": "nM"},
      {"measurement": "EC50", "setting": "[2]", "result": 349, "unit": "nM"}
    ]},
    {"compound": "Cc1cc(O)c(C2=NCCSC(c3ccccc3Br)C2)c(=O)o1", "note": "(stereo not shown) [Compound 74, 3-[7-(2-bromo-phenyl)-2,3,6,7-tetrahydro-[1,4]thiazepin-5-yl]4-hydroxy-6-methyl-pyran-2-one]", "values": [
      {"measurement": "EC50", "setting": "[1]", "result": 3270, "unit": "nM"},
      {"measurement": "EC50", "setting": "[2]", "result": 2080, "unit": "nM"}
    ]},
    {"compound": "COc1cccc(C2CC(c3c(O)cc(C)oc3=O)=NCCS2)c1", "note": "(stereo not shown) [Compound 72, 4-hydroxy-3-[7-(3-methoxy-phenyl)-2,3,6,7-tetrahydro-[1,4]thiazepin-5-yl]-6-methyl-pyran-2-one]", "values": [
      {"measurement": "EC50", "setting": "[1]", "result": 3050, "unit": "nM"},
      {"measurement": "EC50", "setting": "[2]", "result": 1950, "unit": "nM"}
    ]}
  ]
}
